# From ChEMBL document CHEMBL1201862, “PubChem BioAssay data set” (2004)
# Calls of active or inactive are those of the source.
# Legend:
# [1] = Luminescent dose response cell-based high throughput screening assay for inhibitors of the Janus kinase 2 mutant JAK2V617F. [Related pubchem assays: 1446 (Primary screen.), 1521 (Confirmation assay.), 1486 (Counter screen.)]; format: functional
# [2] = luciferase reporter signal suppression in cells – H4 neuroglioma cells, luminescence, dose response (AID 1990); format: functional, cell-based
# [3] = molecular target: E3 ubiquitin-protein ligase Mdm2 (Homo sapiens, UniProt Q00987); assay: MDM2-luc reporter signal enhancers, multi-concentration potency testing, MDM2 ubiquitin-protein ligase inhibitor program, whole-cell format, luminescence detection, 384-well microplate (AID 1394); format: functional;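 also: MDM2 E3 inhibitors raise luminescence so EC50 is for signal enhancement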
# [4] = tested on: HeLa; assay: Cytotoxicity counterscreen assay for transcriptional activators of heat shock protein 70 (Hsp70). [Related pubchem assays: 1203, 1252 ]; format: functional; conditions: Homo sapiens;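 also: cells exposed to compound for 16 hours before readout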
# [5] = tested on: BJ; assay: BJ-TERT fibroblast viability loss – cell-based, RAS-independent, luminescence, dose response (AID 1933); format: functional; conditions: Homo sapiens
# [6] = Luminescence Cell-Based Dose Response HTS to Identify Inhibitors of 5'UTR Stem-Loop Driven Prion Protein mRNA Translation in H4 Neuroglioblastoma Cells. [Related pubchem assays: 1827 (Project Summary), 1813 (Primary HTS)]; format: functional
# [7] = alpha-synuclein stem-loop luciferase translation blockers – H4 neuroglioma cells, luminescence, confirmation (AID 1988); format: functional, cell-based
# [8] = tested on: BJ; assay: cells; format: functional, cell-based; conditions: Homo sapiens
# [9] = tested on: BJ; assay: BJ-TERT-LT-ST fibroblast viability loss – cell-based, RAS-independent, luminescence, dose response (AID 1935); format: functional; conditions: Homo sapiens;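 also: BJ fibroblasts immortalized with TERT plus LT and ST oncogenes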
# [10] = DRD fibroblast viability loss – cell-based, non-viral oncogenic, luminescence, dose response (AID 1934); format: functional; conditions: Homo sapiens
# [11] = molecular target: E3 ubiquitin-protein ligase Mdm2/Protein Mdm4 (Homo sapiens, UniProt O15151+Q00987); assay: disruption of Mdm2/MdmX protein binding – luminescence detection, dose response (AID 504593); format: functional
# [12] = HEK-293T viability loss after treatment – luminescence, T-cell screen hits, cytotoxicity control for TCR NF-kB inhibitor project, dose response (AID 489026); format: functional, cell-based;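 also: cells exposed to compound about 14 hours before the viability readout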
# [13] = tested on: BJ; assay: growth inhibition of engineered Ras-driven BJ cells – cell-based, alamar blue fluorescence, cherrypicked samples, dose response (AID 2631); format: functional; conditions: Homo sapiens;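 also: confirmatory dose-response assay in RAS-dependent BJ fibroblasts engineered with TERT, LT and ST, with cytotoxicity read by fluorescence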
# [14] = tested on: INS1; assay: INS-1E survival protection against cytokine death – cell-based, luminescence, retest, dose response (AID 449756); format: functional; conditions: Rattus norvegicus;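 also: cell death triggered by IL-1 beta plus TNF-alpha plus IFN-gamma mixture; protective hits raise ATP signal compared with cytokine alone wells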
# [15] = molecular target: T1, Hepatocyte nuclear factor 4-alpha (Homo sapiens, UniProt P41235); format: functional, cell-based;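 also: biochemical luminescence-based dose-response counterscreen measuring inhibition of HNF4 dimerization, run alongside a screen for blockers of ABHD5–perilipin-5 interaction; split luciferase complementation of HNF4 fusion proteins in cell lysate measuring dimerization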
# T1 sequence (P41235 whole entry): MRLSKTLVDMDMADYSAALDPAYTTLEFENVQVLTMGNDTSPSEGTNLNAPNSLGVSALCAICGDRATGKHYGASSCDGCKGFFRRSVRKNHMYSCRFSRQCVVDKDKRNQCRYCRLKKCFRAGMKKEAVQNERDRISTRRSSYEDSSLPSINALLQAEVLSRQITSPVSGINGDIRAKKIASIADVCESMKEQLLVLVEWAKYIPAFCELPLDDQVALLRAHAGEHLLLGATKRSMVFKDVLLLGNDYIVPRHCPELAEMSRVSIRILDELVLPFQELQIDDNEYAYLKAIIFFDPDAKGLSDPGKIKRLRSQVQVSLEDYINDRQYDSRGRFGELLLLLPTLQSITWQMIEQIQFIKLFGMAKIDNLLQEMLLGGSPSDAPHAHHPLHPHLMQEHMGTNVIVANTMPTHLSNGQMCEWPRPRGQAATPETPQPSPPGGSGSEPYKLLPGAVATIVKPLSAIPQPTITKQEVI
# [16] = molecular target: T2, Tyrosine-protein phosphatase non-receptor type 7 (Homo sapiens, UniProt P35236); format: functional
# T2 sequence (P35236 whole entry): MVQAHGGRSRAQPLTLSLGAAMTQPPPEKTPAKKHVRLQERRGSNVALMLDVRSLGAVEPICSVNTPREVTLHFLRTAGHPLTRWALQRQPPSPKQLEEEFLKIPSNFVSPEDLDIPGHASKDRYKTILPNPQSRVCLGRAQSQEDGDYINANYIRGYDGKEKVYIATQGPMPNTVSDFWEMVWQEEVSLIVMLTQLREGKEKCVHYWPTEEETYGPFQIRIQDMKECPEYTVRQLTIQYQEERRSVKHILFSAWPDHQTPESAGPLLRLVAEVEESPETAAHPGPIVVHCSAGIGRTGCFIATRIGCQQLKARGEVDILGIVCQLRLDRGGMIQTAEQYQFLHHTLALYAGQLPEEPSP
# [17] = molecular target: Glyceraldehyde-3-phosphate dehydrogenase (Homo sapiens, UniProt P04406)
# [18] = molecular target: T3, Dual specificity protein phosphatase 6 (Rattus norvegicus, UniProt Q64346)
# T3 sequence (Q64346 whole entry): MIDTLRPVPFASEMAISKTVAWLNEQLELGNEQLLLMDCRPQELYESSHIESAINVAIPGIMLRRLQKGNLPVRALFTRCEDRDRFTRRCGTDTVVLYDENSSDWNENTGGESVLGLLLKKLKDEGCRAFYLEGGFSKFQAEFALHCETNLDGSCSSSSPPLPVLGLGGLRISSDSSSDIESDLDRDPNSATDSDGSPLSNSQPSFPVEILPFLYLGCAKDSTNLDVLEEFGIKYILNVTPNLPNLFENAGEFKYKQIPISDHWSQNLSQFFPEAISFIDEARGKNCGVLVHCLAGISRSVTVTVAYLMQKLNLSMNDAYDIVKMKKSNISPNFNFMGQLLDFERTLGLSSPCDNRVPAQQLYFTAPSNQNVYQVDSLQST
# [19] = molecular target: T4, Short transient receptor potential channel 4 (Mus musculus, UniProt Q9QUQ5); assay: block of DAMGO-driven TRPC4 calcium entry – cell-based, HEK293 TRPC4/mu-opioid, Fluo-4 calcium, dose response (AID 434942); format: functional;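 also: potency of inhibitors blocking the TRPC4 calcium response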
# T4 sequence (Q9QUQ5 whole entry): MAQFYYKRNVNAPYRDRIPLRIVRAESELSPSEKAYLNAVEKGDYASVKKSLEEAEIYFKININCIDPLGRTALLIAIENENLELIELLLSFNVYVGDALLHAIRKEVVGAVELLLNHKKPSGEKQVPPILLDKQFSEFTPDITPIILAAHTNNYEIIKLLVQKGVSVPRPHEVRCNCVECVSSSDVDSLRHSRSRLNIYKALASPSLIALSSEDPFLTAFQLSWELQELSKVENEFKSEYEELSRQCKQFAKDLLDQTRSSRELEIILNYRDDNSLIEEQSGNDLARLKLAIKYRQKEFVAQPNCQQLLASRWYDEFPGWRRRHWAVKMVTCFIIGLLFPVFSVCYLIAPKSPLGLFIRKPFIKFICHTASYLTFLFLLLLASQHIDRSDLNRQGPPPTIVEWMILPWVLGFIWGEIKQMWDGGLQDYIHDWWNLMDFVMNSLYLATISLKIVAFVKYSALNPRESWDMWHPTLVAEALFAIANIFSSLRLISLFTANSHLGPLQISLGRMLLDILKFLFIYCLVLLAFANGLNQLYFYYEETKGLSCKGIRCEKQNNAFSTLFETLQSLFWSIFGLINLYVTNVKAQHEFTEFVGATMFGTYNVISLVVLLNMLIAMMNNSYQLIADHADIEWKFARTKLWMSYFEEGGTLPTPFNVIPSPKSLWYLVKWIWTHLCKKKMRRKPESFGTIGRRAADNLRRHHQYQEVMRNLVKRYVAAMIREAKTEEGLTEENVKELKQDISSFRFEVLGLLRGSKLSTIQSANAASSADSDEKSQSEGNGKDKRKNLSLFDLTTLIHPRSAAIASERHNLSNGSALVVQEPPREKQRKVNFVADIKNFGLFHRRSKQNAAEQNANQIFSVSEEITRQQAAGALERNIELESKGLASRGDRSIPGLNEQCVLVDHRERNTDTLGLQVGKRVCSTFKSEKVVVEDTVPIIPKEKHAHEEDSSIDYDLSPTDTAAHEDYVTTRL
# [20] = molecular target: T5, Dual specificity protein phosphatase 3 (Homo sapiens, UniProt P51452); assay: SAR VHR1 Fluorescent Assay for In Vitro dose response studies. [Related pubchem assays (depositor defined):AID1654, AID1661, AID1878, AID1992, AID2004, AID2070, AID2085]; format: functional
# T5 sequence (P51452 whole entry): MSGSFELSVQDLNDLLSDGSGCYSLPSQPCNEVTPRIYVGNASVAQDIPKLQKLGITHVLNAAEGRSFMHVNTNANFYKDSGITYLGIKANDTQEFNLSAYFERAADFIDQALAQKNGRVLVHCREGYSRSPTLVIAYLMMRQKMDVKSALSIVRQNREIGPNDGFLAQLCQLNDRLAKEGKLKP
# [21] = molecular target: T5, Dual specificity protein phosphatase 3; assay: MOA VHR1 Fluorescent secondary assay for identification of redox-state modulating compounds. [Related pubchem assays (depositor defined):AID1654, AID1661, AID1878, AID1957]
# [22] = molecular target: T2, Tyrosine-protein phosphatase non-receptor type 7; assay: redox-active compounds inhibiting HePTP phosphatase – biochemical, fluorescence, mechanism study (AID 2068); format: functional
# [23] = molecular target: T4, Short transient receptor potential channel 4; assay: calcium entry via TRPC4 opening agents – cell-based, HEK293 TRPC4/mu-opioid, Fluo-4 calcium, dose response (AID 434937); format: functional
# [24] = molecular target: T3, Dual specificity protein phosphatase 6; format: functional
# [25] = molecular target: Integrin alpha-L (Mus musculus, UniProt P24063); assay: modulators of CD8 T cell-vesicle binding, dose response, powder samples, mouse 2C CD8+ cells (AID 504565); format: functional
# Sequence of Integrin alpha-L (P24063 whole entry): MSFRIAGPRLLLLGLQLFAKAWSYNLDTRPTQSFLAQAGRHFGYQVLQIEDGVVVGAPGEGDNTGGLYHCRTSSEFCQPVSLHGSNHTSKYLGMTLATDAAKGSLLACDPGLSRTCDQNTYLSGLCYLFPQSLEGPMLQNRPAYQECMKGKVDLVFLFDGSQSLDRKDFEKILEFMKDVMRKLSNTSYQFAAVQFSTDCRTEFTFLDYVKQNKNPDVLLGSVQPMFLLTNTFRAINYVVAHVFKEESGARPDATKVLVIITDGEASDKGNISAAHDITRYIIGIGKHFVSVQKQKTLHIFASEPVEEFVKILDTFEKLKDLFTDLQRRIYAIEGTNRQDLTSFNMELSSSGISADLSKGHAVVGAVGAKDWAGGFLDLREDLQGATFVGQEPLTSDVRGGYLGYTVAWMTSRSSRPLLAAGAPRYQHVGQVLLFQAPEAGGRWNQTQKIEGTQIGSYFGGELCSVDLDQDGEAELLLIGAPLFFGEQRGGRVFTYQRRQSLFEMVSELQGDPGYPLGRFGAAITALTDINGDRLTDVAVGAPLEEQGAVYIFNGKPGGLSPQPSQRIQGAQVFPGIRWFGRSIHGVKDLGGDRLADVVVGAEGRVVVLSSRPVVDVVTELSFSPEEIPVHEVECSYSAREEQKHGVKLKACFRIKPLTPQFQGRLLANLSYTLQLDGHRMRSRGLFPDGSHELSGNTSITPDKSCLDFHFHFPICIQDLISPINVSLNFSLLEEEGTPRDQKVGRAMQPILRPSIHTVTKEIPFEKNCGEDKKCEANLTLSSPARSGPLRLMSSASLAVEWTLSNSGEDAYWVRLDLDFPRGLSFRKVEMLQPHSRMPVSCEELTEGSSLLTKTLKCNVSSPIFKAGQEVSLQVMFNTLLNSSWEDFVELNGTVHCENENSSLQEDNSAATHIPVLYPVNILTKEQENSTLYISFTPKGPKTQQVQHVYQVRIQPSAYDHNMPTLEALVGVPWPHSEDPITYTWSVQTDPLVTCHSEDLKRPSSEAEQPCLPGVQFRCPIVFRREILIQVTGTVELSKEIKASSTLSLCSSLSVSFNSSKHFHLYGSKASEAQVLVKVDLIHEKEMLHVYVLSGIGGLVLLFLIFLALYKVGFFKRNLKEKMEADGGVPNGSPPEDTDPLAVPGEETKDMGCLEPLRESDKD
# [26] = molecular target: Alkaline phosphatase, placental type (Homo sapiens, UniProt P05187); assay: human placental alkaline phosphatase inhibition – biochemical, luminescence, confirmation (AID 1512); format: functional
# [27] = molecular target: T6, Alkaline phosphatase, tissue-nonspecific isozyme (Homo sapiens, UniProt P05186); assay: potency against alkaline phosphatase TNAP – biochemical, luminescent, dose response, SAR follow-up (AID 1056)
# T6 sequence (P05186 whole entry): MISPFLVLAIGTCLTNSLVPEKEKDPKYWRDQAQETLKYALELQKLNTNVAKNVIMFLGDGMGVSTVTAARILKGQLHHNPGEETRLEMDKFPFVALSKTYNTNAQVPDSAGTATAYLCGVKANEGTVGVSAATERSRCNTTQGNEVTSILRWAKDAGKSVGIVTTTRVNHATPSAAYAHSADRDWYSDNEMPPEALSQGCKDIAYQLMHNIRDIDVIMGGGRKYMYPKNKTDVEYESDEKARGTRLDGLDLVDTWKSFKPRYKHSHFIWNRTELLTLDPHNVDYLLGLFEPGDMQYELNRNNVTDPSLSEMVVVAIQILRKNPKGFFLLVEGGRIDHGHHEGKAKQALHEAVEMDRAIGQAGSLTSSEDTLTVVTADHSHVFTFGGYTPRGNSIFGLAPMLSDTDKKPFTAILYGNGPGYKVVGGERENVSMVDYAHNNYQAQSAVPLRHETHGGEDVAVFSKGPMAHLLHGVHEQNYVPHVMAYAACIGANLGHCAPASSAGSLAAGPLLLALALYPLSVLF
# [28] = molecular target: T2, Tyrosine-protein phosphatase non-receptor type 7; assay: SAR analysis of chemical inhibitors of HePTP using a Fluorescent assay - Set 2. [Related pubchem assays (depositor defined):AID1059, AID1077, AID1661, AID2085, AID521]; format: functional
# [29] = molecular target: T5, Dual specificity protein phosphatase 3; assay: SAR VHR1 Fluorescent Assay for In Vitro dose response studies Set 2. [Related pubchem assays (depositor defined):AID1654, AID1661, AID1878]; format: functional
# [30] = molecular target: Hexokinase (Trypanosoma brucei, UniProt Q38C41); assay: Confirmation assay for inhibitors of Trypanosoma brucei hexokinase 1-Analogue-first series. [Related pubchem assays (depositor defined):AID1430, AID1632, AID2516, AID2560, AID2579, AID2600, AID449725, AID492951]; format: functional
# Sequence of Hexokinase (Q38C41 whole entry): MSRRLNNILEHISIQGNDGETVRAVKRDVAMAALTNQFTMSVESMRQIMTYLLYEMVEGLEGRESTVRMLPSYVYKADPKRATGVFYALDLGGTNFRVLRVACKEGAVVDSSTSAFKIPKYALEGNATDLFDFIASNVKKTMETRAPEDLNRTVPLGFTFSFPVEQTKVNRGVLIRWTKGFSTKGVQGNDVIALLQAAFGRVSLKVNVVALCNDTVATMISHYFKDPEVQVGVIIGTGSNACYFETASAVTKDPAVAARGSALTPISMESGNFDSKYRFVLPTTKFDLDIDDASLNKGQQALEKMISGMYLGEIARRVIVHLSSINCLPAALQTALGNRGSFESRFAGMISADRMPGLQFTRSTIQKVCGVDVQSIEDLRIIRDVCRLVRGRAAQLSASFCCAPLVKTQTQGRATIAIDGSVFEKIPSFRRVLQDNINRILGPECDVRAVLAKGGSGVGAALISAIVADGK
# [31] = molecular target: T7, Voltage-gated N-type calcium channel alpha-1B subunit/Amyloid beta A4 precursor protein-binding family A member 1 (Homo sapiens, UniProt Q00975+Q02410); format: protein assay
# T7 sequence (Q00975 whole entry): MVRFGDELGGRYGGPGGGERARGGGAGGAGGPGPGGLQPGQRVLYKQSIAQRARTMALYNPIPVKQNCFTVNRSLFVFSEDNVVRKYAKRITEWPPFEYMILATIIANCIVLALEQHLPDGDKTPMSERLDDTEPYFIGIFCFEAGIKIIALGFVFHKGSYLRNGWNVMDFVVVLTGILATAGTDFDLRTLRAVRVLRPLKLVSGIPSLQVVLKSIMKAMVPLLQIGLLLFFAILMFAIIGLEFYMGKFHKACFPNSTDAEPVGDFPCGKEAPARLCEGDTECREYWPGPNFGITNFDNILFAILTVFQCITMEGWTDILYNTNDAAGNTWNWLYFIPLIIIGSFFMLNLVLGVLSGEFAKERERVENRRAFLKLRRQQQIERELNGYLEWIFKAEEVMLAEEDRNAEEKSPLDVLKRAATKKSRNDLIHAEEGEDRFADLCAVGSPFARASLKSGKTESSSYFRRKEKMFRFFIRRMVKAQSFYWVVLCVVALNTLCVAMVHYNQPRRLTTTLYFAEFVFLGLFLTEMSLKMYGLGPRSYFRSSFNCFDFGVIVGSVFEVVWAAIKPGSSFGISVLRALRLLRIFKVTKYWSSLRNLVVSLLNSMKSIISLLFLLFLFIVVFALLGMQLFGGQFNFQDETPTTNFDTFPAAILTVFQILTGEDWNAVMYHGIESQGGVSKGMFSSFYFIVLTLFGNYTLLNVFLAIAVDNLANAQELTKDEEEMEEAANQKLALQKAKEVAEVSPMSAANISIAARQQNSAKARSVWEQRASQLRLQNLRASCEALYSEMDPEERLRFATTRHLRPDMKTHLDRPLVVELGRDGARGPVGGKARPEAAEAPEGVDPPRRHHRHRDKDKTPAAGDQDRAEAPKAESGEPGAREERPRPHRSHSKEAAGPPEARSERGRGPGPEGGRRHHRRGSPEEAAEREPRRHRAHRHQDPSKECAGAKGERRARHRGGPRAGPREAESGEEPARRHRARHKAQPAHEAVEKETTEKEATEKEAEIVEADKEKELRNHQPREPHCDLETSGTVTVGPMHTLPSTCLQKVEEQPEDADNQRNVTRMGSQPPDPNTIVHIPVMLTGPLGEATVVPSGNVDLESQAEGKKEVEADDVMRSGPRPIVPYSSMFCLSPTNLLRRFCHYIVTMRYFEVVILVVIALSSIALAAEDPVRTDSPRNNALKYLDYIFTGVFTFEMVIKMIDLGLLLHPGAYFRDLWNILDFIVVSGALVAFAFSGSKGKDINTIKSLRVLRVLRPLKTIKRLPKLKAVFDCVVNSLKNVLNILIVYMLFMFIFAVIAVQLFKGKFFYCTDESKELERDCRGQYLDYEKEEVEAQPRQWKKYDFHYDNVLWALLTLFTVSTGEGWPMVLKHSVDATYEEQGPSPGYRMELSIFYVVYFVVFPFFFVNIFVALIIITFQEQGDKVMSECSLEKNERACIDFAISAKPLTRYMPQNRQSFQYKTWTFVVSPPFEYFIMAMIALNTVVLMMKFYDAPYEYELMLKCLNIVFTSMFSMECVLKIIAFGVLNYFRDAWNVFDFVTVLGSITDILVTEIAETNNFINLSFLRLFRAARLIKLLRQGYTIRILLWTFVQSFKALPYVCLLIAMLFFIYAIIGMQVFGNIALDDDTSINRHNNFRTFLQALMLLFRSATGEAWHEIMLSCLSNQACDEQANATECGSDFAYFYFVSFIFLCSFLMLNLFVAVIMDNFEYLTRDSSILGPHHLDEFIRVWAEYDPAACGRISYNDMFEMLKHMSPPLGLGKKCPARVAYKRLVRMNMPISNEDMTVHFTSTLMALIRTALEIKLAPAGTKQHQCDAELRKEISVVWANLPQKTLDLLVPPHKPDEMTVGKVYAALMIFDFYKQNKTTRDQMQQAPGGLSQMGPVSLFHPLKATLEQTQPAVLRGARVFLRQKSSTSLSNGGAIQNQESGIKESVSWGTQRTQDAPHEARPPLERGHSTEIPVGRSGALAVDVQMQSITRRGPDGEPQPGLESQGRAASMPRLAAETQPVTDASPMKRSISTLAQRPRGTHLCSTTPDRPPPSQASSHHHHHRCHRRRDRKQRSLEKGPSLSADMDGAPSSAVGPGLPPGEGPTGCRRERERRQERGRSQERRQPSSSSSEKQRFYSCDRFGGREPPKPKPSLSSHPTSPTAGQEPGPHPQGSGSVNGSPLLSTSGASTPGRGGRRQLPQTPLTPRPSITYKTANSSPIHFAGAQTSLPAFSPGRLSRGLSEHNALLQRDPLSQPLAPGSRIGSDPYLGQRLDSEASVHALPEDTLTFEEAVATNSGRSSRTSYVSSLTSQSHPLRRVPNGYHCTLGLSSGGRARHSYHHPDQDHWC
# T7 sequence (Q02410 whole entry): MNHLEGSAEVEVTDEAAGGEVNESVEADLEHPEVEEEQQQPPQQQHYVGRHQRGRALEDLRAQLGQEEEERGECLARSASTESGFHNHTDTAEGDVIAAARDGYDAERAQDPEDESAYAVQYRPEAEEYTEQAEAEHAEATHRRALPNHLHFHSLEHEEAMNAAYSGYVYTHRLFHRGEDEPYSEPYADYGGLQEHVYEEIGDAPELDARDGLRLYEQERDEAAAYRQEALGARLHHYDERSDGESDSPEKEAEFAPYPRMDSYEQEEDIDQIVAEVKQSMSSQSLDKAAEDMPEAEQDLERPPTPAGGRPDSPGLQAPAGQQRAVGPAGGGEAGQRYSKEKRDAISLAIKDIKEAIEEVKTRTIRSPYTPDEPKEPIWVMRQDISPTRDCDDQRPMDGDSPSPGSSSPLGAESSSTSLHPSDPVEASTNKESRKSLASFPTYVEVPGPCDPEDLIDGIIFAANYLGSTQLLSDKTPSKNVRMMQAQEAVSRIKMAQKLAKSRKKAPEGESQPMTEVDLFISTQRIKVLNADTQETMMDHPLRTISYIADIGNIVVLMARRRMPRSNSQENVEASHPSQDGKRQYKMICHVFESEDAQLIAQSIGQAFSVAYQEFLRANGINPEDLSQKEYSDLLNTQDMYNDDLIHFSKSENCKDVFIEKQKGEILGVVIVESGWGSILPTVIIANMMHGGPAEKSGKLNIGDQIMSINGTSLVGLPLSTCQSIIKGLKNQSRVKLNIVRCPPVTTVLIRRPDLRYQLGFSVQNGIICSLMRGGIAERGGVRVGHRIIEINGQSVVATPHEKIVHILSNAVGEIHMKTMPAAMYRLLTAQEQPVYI
# [32] = molecular target: T7, Voltage-gated N-type calcium channel alpha-1B subunit/Amyloid beta A4 precursor protein-binding family A member 1; format: protein assay; remark: listed apart in the source
smiles,measurement,setting,value
CCN1C/C(=C/c2ccc(OC)c(O)c2)C(=O)/C(=C/c2ccc(OC)c(O)c2)C1,IC50,[1],0.67 µM (active)
same,EC50,[2],0.374 µM (inconclusive)
same,EC50,[3],0.38 µM (active)
same,CC50,[4],> 3.67 µM (not active)
same,EC50,[5],1.78 µM (inconclusive)
same,EC50,[6],0.221 µM (active)
same,EC50,[7],4.84 µM (active)
same,EC50,[8],1.35 µM (inconclusive)
same,EC50,[9],1.25 µM (inconclusive)
same,EC50,[10],1.34 µM (active)
same,IC50,[11],8.47 µM (active)
same,IC50,[12],> 80 µM (inactive)
same,EC50,[13],0.38 µM (active)
same,AC50,[14],4.09 µM (active)
same,IC50,[15],12.9 µM (inactive)
Cc1ccc2c(nc3s/c(=C\c4ccc(-c5ccccc5C(=O)O)o4)c(=O)n32)c1C,IC50,[16],3.88 µM (active)
same,IC50,[17],> 100 µM (not active)
same,IC50,[18],22 µM (active)
same,EC50,[19],5.31 µM (active)
same,IC50,[20],5.71 µM (active)
same,IC50,[21],2.94 µM (active)
same,IC50,[22],2.2 µM (active)
same,EC50,[23],6.68 µM (active)
same,IC50,[24],35.3 µM (active)
COc1ccc(S(=O)(=O)N2CCCC2C(=O)Nc2ccc(C(C)=O)cc2)cc1 (configuration not stated),EC50,[25],0.04 µM (active)
COc1ccc(-c2nnc(SCC(=O)c3ccc(O)c(O)c3)n2-c2ccc(Cl)cc2)cc1,IC50,[26],25 µM (active)
same,IC50,[27],> 100 µM (inactive)
COc1cccc(CN2CCN(C(=S)Nc3ccc(S(N)(=O)=O)cc3)CC2)c1,IC50,[28],> 100 µM (inactive)
same,IC50,[29],> 100 µM (inactive)
COc1ccc(C(=O)Nc2cc(Cl)c(C)cc2C(=O)O)cc1,IC50,[30],10.3 µM (active)
COc1ccc2cc(/N=C/c3nc(-c4ccc(C)cc4)oc3O)cnc2c1,IC50,[31],10.3 µM (active)
same,IC50,[32],> 50 µM (inactive)
